Columns and labels:
Assay in all cases: Herbicidal effect by foliage and soil treatment
Type in all cases: in vivo
Conditions in all cases: 10 g ai/10a, evaluated after 14 days
[1] = test system: black nightshade (Solanum nigrum)
Method in brief: (§1)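 Seedlings grown in granular soil in a 19–25 °C greenhouse to the cotyledon–two-leaf stage were sprayed over foliage and soil with compound in Tween 20/water at a set application rate. Growth was scored on a rating scale against untreated plants after 14 days.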

[2] = test system: cleavers (Galium aparine)
Method in brief: as §1

[3] = test system: common blackjack (Bidens pilosa)
Method in brief: as §1

[4] = test system: common chickweed (Stellaria media)
Method in brief: as §1

[5] = test system: field bindweed (Convolvulus arvensis)
Method in brief: as §1

[6] = test system: ivyleafspeedwell (Veronica hederaefolia)
Method in brief: as §1

[7] = test system: kediock (Sinapis arvensis)
Method in brief: as §1

[8] = test system: redroot pigweed (Amaranthus retroflexus)
Method in brief: as §1

[9] = test system: sicklepod (Cassia obtusifolia)
Method in brief: as §1

[10] = test system: velvetleaf (Abutilon theophrasti)
Method in brief: as §1

[11] = test system: wild chamomile (Matricaria chamomilla)
Method in brief: as §1

Row | SMILES | herbicidal activity rating, SN (Solanum nigrum) [1] | herbicidal activity rating, GA (Galium aparine) [2] | herbicidal activity rating, BP (Bidens pilosa) [3] | herbicidal activity rating, SM (Stellaria media) [4] | herbicidal activity rating, CA (Convolvulus arvensis) [5] | herbicidal activity rating, VH (Veronica hederaefolia) [6] | herbicidal activity rating, SA (Sinapis arvensis) [7] | herbicidal activity rating, AR (Amaranthus retroflexus) [8] | herbicidal activity rating, CO (Cassia obtusifolia) [9] | herbicidal activity rating, AT (Abutilon theophrasti) [10] | herbicidal activity rating, MC (Matricaria chamomilla) [11]
1 | COc1cc(Oc2cccc(C(F)(F)F)c2)nc(C(=O)NN(C)C)c1 [Compound I-109] | 5 (percentage of weeds killed was not less than 80%) | 5 (percentage of weeds killed was not less than 80%) | 5 (percentage of weeds killed was not less than 80%) | 4 (percentage of weeds killed was not less than 60% and less than 80%) | 4 (percentage of weeds killed was not less than 60% and less than 80%) | 5 (percentage of weeds killed was not less than 80%) | 5 (percentage of weeds killed was not less than 80%) | 5 (percentage of weeds killed was not less than 80%) | 5 (percentage of weeds killed was not less than 80%) | 5 (percentage of weeds killed was not less than 80%) | 4 (percentage of weeds killed was not less than 60% and less than 80%)
2 | COc1cc(Oc2cccc(C(F)(F)F)c2)nc(C(N)=O)c1 [Compound I-123, 4-methoxy-6-{3-(trifluoromethyl)phenoxy}-2-pyridine carboxamide] | 5 (percentage of weeds killed was not less than 80%) | 5 (percentage of weeds killed was not less than 80%) | 2 (percentage of weeds killed was not less than 20% and less than 40%) | 5 (percentage of weeds killed was not less than 80%) | 4 (percentage of weeds killed was not less than 60% and less than 80%) | 5 (percentage of weeds killed was not less than 80%) | 5 (percentage of weeds killed was not less than 80%) | 5 (percentage of weeds killed was not less than 80%) | 2 (percentage of weeds killed was not less than 20% and less than 40%) | 3 (percentage of weeds killed was not less than 40% and less than 60%) | 1 (percentage of weeds killed was less than 20%)
3 | COc1cc(Oc2cccc(C(F)(F)F)c2)nc(C(=O)NNC(C)(C)C)c1 [Compound I-126] | 5 (percentage of weeds killed was not less than 80%) | 5 (percentage of weeds killed was not less than 80%) | 5 (percentage of weeds killed was not less than 80%) | 5 (percentage of weeds killed was not less than 80%) | 4 (percentage of weeds killed was not less than 60% and less than 80%) | 5 (percentage of weeds killed was not less than 80%) | 5 (percentage of weeds killed was not less than 80%) | 5 (percentage of weeds killed was not less than 80%) | 5 (percentage of weeds killed was not less than 80%) | 5 (percentage of weeds killed was not less than 80%) | 4 (percentage of weeds killed was not less than 60% and less than 80%)
4 | COc1cc(Oc2cccc(C(F)(F)F)c2)nc(C(=O)NCS(C)(=O)=O)c1 [Compound I-127] | 5 (percentage of weeds killed was not less than 80%) | 5 (percentage of weeds killed was not less than 80%) | 5 (percentage of weeds killed was not less than 80%) | 5 (percentage of weeds killed was not less than 80%) | 5 (percentage of weeds killed was not less than 80%) | 5 (percentage of weeds killed was not less than 80%) | 5 (percentage of weeds killed was not less than 80%) | 5 (percentage of weeds killed was not less than 80%) | 5 (percentage of weeds killed was not less than 80%) | 5 (percentage of weeds killed was not less than 80%) | 4 (percentage of weeds killed was not less than 60% and less than 80%)
5 | CCN(CC)C(=O)c1cc(OC)cc(Oc2cccc(C(F)(F)F)c2)n1 [Compound I-200, N,N-diethyl-4-methoxy-6-{3-(trifluoromethyl)phenoxy}-2-pyridine carboxamide] | 5 (percentage of weeds killed was not less than 80%) | 5 (percentage of weeds killed was not less than 80%) | 2 (percentage of weeds killed was not less than 20% and less than 40%) | 5 (percentage of weeds killed was not less than 80%) | 5 (percentage of weeds killed was not less than 80%) | 5 (percentage of weeds killed was not less than 80%) | 5 (percentage of weeds killed was not less than 80%) | 5 (percentage of weeds killed was not less than 80%) | 5 (percentage of weeds killed was not less than 80%) | 5 (percentage of weeds killed was not less than 80%) | 4 (percentage of weeds killed was not less than 60% and less than 80%)
6 | CCN(C)C(=O)c1cc(OC)cc(Oc2cccc(C(F)(F)F)c2)n1 [Compound I-201] | 5 (percentage of weeds killed was not less than 80%) | 5 (percentage of weeds killed was not less than 80%) | 2 (percentage of weeds killed was not less than 20% and less than 40%) | 5 (percentage of weeds killed was not less than 80%) | 5 (percentage of weeds killed was not less than 80%) | 5 (percentage of weeds killed was not less than 80%) | 5 (percentage of weeds killed was not less than 80%) | 5 (percentage of weeds killed was not less than 80%) | 5 (percentage of weeds killed was not less than 80%) | 4 (percentage of weeds killed was not less than 60% and less than 80%) | 2 (percentage of weeds killed was not less than 20% and less than 40%)
7 | CNN(C)C(=O)c1cc(OC)cc(Oc2cccc(C(F)(F)F)c2)n1 [Compound I-202, N-methyl-N-methylamino-4-methoxy-6-{3-(trifluoromethyl)phenoxy}-2-pyridine carboxamide] | 5 (percentage of weeds killed was not less than 80%) | 5 (percentage of weeds killed was not less than 80%) | 4 (percentage of weeds killed was not less than 60% and less than 80%) | 5 (percentage of weeds killed was not less than 80%) | 4 (percentage of weeds killed was not less than 60% and less than 80%) | 5 (percentage of weeds killed was not less than 80%) | 5 (percentage of weeds killed was not less than 80%) | 5 (percentage of weeds killed was not less than 80%) | 5 (percentage of weeds killed was not less than 80%) | 4 (percentage of weeds killed was not less than 60% and less than 80%) | 3 (percentage of weeds killed was not less than 40% and less than 60%)

Reference: patent US6339045B1, “N-(unsubstituted or substituted)-4-substituted-6-(unsubstituted or substituted)phenoxy-2-pyridinecarboxamides or thiocarboxamides, processes for producing the same, and herbicides” (Kureha Kagaku Kogyo Kabushiki Kaisha, priority 1995, dated 2002)
